Assay: mn = molality of the nth substance listed, in mol/kg
Conditions: for surface tension liquid-gas: Maximal bubble pressure; for mass density: 100 kPa, Liquid, Vibrating tube method

O [water] + CC(=O)[O-].CCCCC[n+]1ccn(C)c1
m2 = 0
Conditions	mass density [kg/m3]	surface tension liquid-gas [mN/m]
288.15 K	–	73.5
293.15 K	–	72.8
298.15 K	–	72
303.15 K	–	71.2
308.15 K	994.06	70.4
313.15 K	–	69.6
318.15 K	–	68.7

CC(=O)[O-].CCCn1cc[n+](C)c1 [1-propyl-3-methylimidazolium acetate] + O
Conditions	mass density [kg/m3]	surface tension liquid-gas [mN/m]
288.15 K, m1 = 0.0113	1000.22	73.4
288.15 K, m1 = 0.0172	1000.35	73.2
288.15 K, m1 = 0.0279	1000.55	72.8
288.15 K, m1 = 0.0446	1000.78	72.5
288.15 K, m1 = 0.1119	1001.76	71
288.15 K, m1 = 0.1673	1002.56	69.8
288.15 K, m1 = 0.2244	1003.49	68.6
288.15 K, m1 = 0.2808	1004.43	67.4
288.15 K, m1 = 0.3352	1005.37	66.2
288.15 K, m1 = 0.3925	1006.31	65.1
288.15 K, m1 = 0.448	1007.25	64
288.15 K, m1 = 0.5037	1007.98	63
293.15 K, m1 = 0.0113	999.22	72.6
293.15 K, m1 = 0.0172	999.35	72.5
293.15 K, m1 = 0.0279	999.53	72.1
293.15 K, m1 = 0.0446	999.76	71.8
293.15 K, m1 = 0.1119	1000.68	70.5
293.15 K, m1 = 0.1673	1001.46	69
293.15 K, m1 = 0.2244	1002.37	67.8
293.15 K, m1 = 0.2808	1003.28	66.7
293.15 K, m1 = 0.3352	1004.16	65.5
293.15 K, m1 = 0.3925	1005.08	64.4
293.15 K, m1 = 0.448	1005.89	63.3
293.15 K, m1 = 0.5037	1006.64	62.4
298.15 K, m1 = 0.0113	997.99	71.8
298.15 K, m1 = 0.0172	998.1	71.6
298.15 K, m1 = 0.0279	998.25	71.3
298.15 K, m1 = 0.0446	998.46	70.9
298.15 K, m1 = 0.1119	999.35	69.6
298.15 K, m1 = 0.1673	1000.14	68.4
298.15 K, m1 = 0.2244	1001.01	67
298.15 K, m1 = 0.2808	1001.86	66
298.15 K, m1 = 0.3352	1002.67	64.8
298.15 K, m1 = 0.3925	1003.62	63.7
298.15 K, m1 = 0.448	1004.43	62.6
298.15 K, m1 = 0.5037	1005.19	61.6
303.15 K, m1 = 0.0113	996.54	71
303.15 K, m1 = 0.0172	996.62	70.8
303.15 K, m1 = 0.0279	996.78	70.5
303.15 K, m1 = 0.0446	996.99	70.1
303.15 K, m1 = 0.1119	997.84	68.8
303.15 K, m1 = 0.1673	998.61	67.6
303.15 K, m1 = 0.2244	999.46	66.3
303.15 K, m1 = 0.2808	1000.3	65.1
303.15 K, m1 = 0.3352	1001.12	64
303.15 K, m1 = 0.3925	1001.97	62.9
303.15 K, m1 = 0.448	1002.83	61.8
303.15 K, m1 = 0.5037	1003.47	60.9
308.15 K, m1 = 0.0113	994.86	70.2
308.15 K, m1 = 0.0172	994.92	70
308.15 K, m1 = 0.0279	995.09	69.7
308.15 K, m1 = 0.0446	995.28	69.3
308.15 K, m1 = 0.1119	996.14	68.1
308.15 K, m1 = 0.1673	996.89	66.8
308.15 K, m1 = 0.2244	997.74	65.4
308.15 K, m1 = 0.2808	998.56	64.4
308.15 K, m1 = 0.3352	999.31	63.3
308.15 K, m1 = 0.3925	1000.19	62.2
308.15 K, m1 = 0.448	1000.95	61.2
308.15 K, m1 = 0.5037	1001.66	60.2
313.15 K, m1 = 0.0113	992.97	69.3
313.15 K, m1 = 0.0172	993.03	69.1
313.15 K, m1 = 0.0279	993.19	68.8
313.15 K, m1 = 0.0446	993.36	68.5
313.15 K, m1 = 0.1119	994.21	67.1
313.15 K, m1 = 0.1673	994.99	65.9
313.15 K, m1 = 0.2244	995.82	64.7
313.15 K, m1 = 0.2808	996.66	63.6
313.15 K, m1 = 0.3352	997.38	62.4
313.15 K, m1 = 0.3925	998.21	61.4
313.15 K, m1 = 0.448	998.97	60.4
313.15 K, m1 = 0.5037	999.65	59.5
318.15 K, m1 = 0.0113	990.93	68.5
318.15 K, m1 = 0.0172	991.01	68.4
318.15 K, m1 = 0.0279	991.15	68
318.15 K, m1 = 0.0446	991.33	67.7
318.15 K, m1 = 0.1119	992.2	66.4
318.15 K, m1 = 0.1673	992.92	65.2
318.15 K, m1 = 0.2244	993.77	64.1
318.15 K, m1 = 0.2808	994.56	63
318.15 K, m1 = 0.3352	995.34	61.9
318.15 K, m1 = 0.3925	996.12	60.9
318.15 K, m1 = 0.448	996.87	59.8
318.15 K, m1 = 0.5037	997.59	58.9

O [water] + CC(=O)[O-].CCCn1cc[n+](C)c1
m2 = 0
Conditions	mass density [kg/m3]	surface tension liquid-gas [mN/m]
288.15 K	–	73.5
293.15 K	–	72.8
298.15 K	–	72
303.15 K	–	71.2
308.15 K	994.06	70.4
313.15 K	–	69.6
318.15 K	–	68.7

CC(=O)[O-].CCCCC[n+]1ccn(C)c1 [1-methyl-3-pentylimidazolium acetate] + O
Conditions	mass density [kg/m3]	surface tension liquid-gas [mN/m]
288.15 K, m1 = 0.0113	1000.14	73.1
288.15 K, m1 = 0.0167	1000.28	73
288.15 K, m1 = 0.0278	1000.42	72.7
288.15 K, m1 = 0.0448	1000.64	72.2
288.15 K, m1 = 0.1117	1001.58	70.7
288.15 K, m1 = 0.1681	1002.3	69.3
288.15 K, m1 = 0.2233	1002.98	68
288.15 K, m1 = 0.2831	1003.85	66.7
288.15 K, m1 = 0.3358	1004.57	65.4
288.15 K, m1 = 0.3919	1005.36	64.1
288.15 K, m1 = 0.448	1006.14	62.9
288.15 K, m1 = 0.5032	1006.89	61.9
293.15 K, m1 = 0.0113	999.1	72.4
293.15 K, m1 = 0.0167	999.21	72.3
293.15 K, m1 = 0.0278	999.36	71.9
293.15 K, m1 = 0.0448	999.54	71.4
293.15 K, m1 = 0.1117	1000.47	69.9
293.15 K, m1 = 0.1681	1001.12	68.5
293.15 K, m1 = 0.2233	1001.89	67.4
293.15 K, m1 = 0.2831	1002.69	66
293.15 K, m1 = 0.3358	1003.38	64.7
293.15 K, m1 = 0.3919	1004.16	63.5
293.15 K, m1 = 0.448	1004.92	62.2
293.15 K, m1 = 0.5032	1005.68	61.2
298.15 K, m1 = 0.0113	997.82	71.6
298.15 K, m1 = 0.0167	997.9	71.4
298.15 K, m1 = 0.0278	998.08	71.1
298.15 K, m1 = 0.0448	998.25	70.7
298.15 K, m1 = 0.1117	999.05	69.3
298.15 K, m1 = 0.1681	999.71	67.9
298.15 K, m1 = 0.2233	1000.49	66.7
298.15 K, m1 = 0.2831	1001.32	65.4
298.15 K, m1 = 0.3358	1002.01	64.1
298.15 K, m1 = 0.3919	1002.76	62.9
298.15 K, m1 = 0.448	1003.5	61.7
298.15 K, m1 = 0.5032	1004.2	60.7
303.15 K, m1 = 0.0113	996.33	70.8
303.15 K, m1 = 0.0167	996.39	70.6
303.15 K, m1 = 0.0278	996.54	70.4
303.15 K, m1 = 0.0448	996.73	69.9
303.15 K, m1 = 0.1117	997.44	68.5
303.15 K, m1 = 0.1681	998.19	67
303.15 K, m1 = 0.2233	998.96	65.9
303.15 K, m1 = 0.2831	999.76	64.6
303.15 K, m1 = 0.3358	1000.44	63.3
303.15 K, m1 = 0.3919	1001.15	62.1
303.15 K, m1 = 0.448	1001.84	60.8
303.15 K, m1 = 0.5032	1002.51	59.8
308.15 K, m1 = 0.0113	994.67	69.9
308.15 K, m1 = 0.0167	994.74	69.8
308.15 K, m1 = 0.0278	994.85	69.5
308.15 K, m1 = 0.0448	995.01	69.1
308.15 K, m1 = 0.1117	995.82	67.6
308.15 K, m1 = 0.1681	996.5	66.2
308.15 K, m1 = 0.2233	997.24	65.1
308.15 K, m1 = 0.2831	998.03	63.9
308.15 K, m1 = 0.3358	998.7	62.7
308.15 K, m1 = 0.3919	999.4	61.4
308.15 K, m1 = 0.448	1000.08	60.2
308.15 K, m1 = 0.5032	1000.73	59.2
313.15 K, m1 = 0.0113	992.81	69.1
313.15 K, m1 = 0.0167	992.88	69
313.15 K, m1 = 0.0278	992.97	68.7
313.15 K, m1 = 0.0448	993.11	68.2
313.15 K, m1 = 0.1117	993.98	66.8
313.15 K, m1 = 0.1681	994.62	65.5
313.15 K, m1 = 0.2233	995.34	64.4
313.15 K, m1 = 0.2831	996.08	63.2
313.15 K, m1 = 0.3358	996.74	61.9
313.15 K, m1 = 0.3919	997.43	60.7
313.15 K, m1 = 0.448	998.1	59.5
313.15 K, m1 = 0.5032	998.74	58.6
318.15 K, m1 = 0.0113	990.79	68.3
318.15 K, m1 = 0.0167	990.87	68.2
318.15 K, m1 = 0.0278	990.95	67.9
318.15 K, m1 = 0.0448	991.1	67.5
318.15 K, m1 = 0.1117	991.99	66.1
318.15 K, m1 = 0.1681	992.61	64.8
318.15 K, m1 = 0.2233	993.28	63.6
318.15 K, m1 = 0.2831	994.03	62.3
318.15 K, m1 = 0.3358	994.67	61.1
318.15 K, m1 = 0.3919	995.33	60
318.15 K, m1 = 0.448	995.97	58.9
318.15 K, m1 = 0.5032	996.58	57.9
